Source: patent US5602176A, “Phenyl carbamate” (priority 1987, dated 1997)

Columns and labels:
[1] = system: rat hippocampal slices (indirect method for acetylcholinesterase (AChE) inhibition); assay: Electrically evoked 3H-acetylcholine release from rat hippocampal slices; format: cell-based
Description: Electrically evoked ^3 H-acetylcholine release from rat hippocampal slices
Electrically evoked ^3 H-acetylcholine (^3 H-ACh) release from rat hippocampal slices is a functional in vitro model to investigate presynaptic muscarinic autoreceptor agonists and antagonists. This model can also be used as an indirect method to evaluate drugs which inhibit acetylcholinesterase (AChE). Inhibition of AChE activity leads to the accumulation of endogenous ACh which then interacts with presynaptic muscarinic autoreceptors and inhibits further release of ^3 H-ACh.
Rat hippocampal slices (Wistar strain, 180-200 g) are prepared by chopping into cross sections whole hippocampal slices at a distance of 0.3 mm with a McIlwain tissue chopper. Hippocampal slices obtained from 3 rats are incubated for 30 min. at 23° C. in 6 ml Krebs-Ringer containing 0.1 uCi ^3 H-choline and transferred into the superfusion chamber and superfused with Kreb's medium containing 10 μM hemicholinium-3 at a rate of 1.2 ml/min. at 30° C. Collection of 5 min. fractions of the superfusate begins after 60 min. of superfusion. Two periods of electrical stimulation (2 Hz rectangular pulses 2 msec, 10 mA, 2 min.) are applied after 70 min. (S1) and after 125 min. (S2) of superfusion. […] At the end of the experiments the slices are solubilized in conc. formic acid and tritium content is determined in the superfusate and the solubilized slices. Tritium outflow is expressed as the fractional rate of tritium outflow per min. Electrically evoked tritium outflow is calculated by subtraction of the extrapolated basal tritium outflow from the total tritium outflow during the two min. of electrical stimulation and the following 13 min. and is expressed as percent of the tritium content at the beginning of the sample collection. Drug effects on stimulation evoked tritium outflow are expressed as the ratios S2 /S1. All experiments are run in dublicates using a programmable 12 channel superfusion system. For the calculation a computer program is used.

[2] = system: dopamine metabolism in striatum; assay: Influence on dopamine metabolism; format: in vivo, rat; settings: following administration
Procedure: Influence on dopamine metabolism
Male OFA rats (150-200 g) were used both for acute and subchronic experiments. The animals are maintained under 12 hour periods of light and dark. The animals are sacrificed always between 11.00 and 13.00 h. The brains are excised immediately, dissected on ice according to the method of GLOWINSKI and IVERSEN, J. Neurochem. 13, 655 (1966), frozen on dry ice and the tissue samples stored at -80° C. until analysis.
Dopamine and its metabolites DOPAC (3,4-dihydroxyphenylacetic acid) and HVA (homovanillic acid) are determined in brain tissue extracts which are obtained by homogenisation of the stored brain tissue samples in 0.1N HCl containing 0.05 mM ascorbic acid and subsequent centrifugation. Striatal and cortical tissues are used.
The determination of the metabolites is performed using either the gas chromatography/mass fragmentography (GCMS) technique as described by KAROUM et al., J. Neurochem. 25, 653 (1975) and CATABENI et al., Science 178, 166 (1972) or the fluorometric method as described by […] and MAITRE, Analyt. Biochem. 51, 474 (1973). For the GCMS method, tissue extracts are prepared by adding known amounts of deuterated monoamines and their respective metabolites as internal standards.

[3] = system: levels of ACh in different regions of rat brain; assay: Acetylcholine levels in different rat brain regions; format: in vivo; settings: p.o.
Procedure: Acetylcholine levels in different rat brain regions
The animals are killed by microwave irradiation focused on the head (6 kW operating power 2450 Mhz exposure 1.7 sec., Pueschner Mikrowellen-Energietechnik, Bremen). The brains are removed dissected according to Glowinski and Iversen (1966) and stored at -70° C. until analysis. The brain parts are homogenized in 0.1M perchloric acid containing internal deuterated standards of ACh-d4 and Ch(choline)-d4. After centrifugation, endogenous ACh and Ch together with their deuterated variants are extracted with dipicrylamine (2,2',4,4',6,6'-hexanitrodiphenylamine) in dichlormethane as ion pairs. The Ch moities are derivatized with propionyl chloride and the resulting mixture of ACh and propyl choline derivatives are demethylated with sodiumbenzenethiolate and analyzed by mass-fragmentography according to Jenden et al. Anal. Biochem., 55, 438-448, (1973).

[4] = molecular target: T1, AChE preparations of different rat brain regions (Rattus norvegicus, UniProt P37136); assay: Acetylcholinesterase inhibition in different rat brain regions (in vitro, Ellman); format: biochemical; settings: table 1
T1 construct: Rat brain tissue is homogenized in cold phosphate buffer pH 7.3; from tissue; host or cells: rat brain (cortex, hippocampus, striatum), supernatant of Triton X-100 homogenate
Procedure: Acetylcholinesterase inhibition in different rat brain regions
AChE preparations of different rat brain regions (Cortex, hippocampus and striatum) are used in this test and the IC50 (inhibitory concentrations in μM) are determined. The enzyme preparations are preincubated with the inhibitor 15 minutes before the determination.
The AChE activity is measured according to the method described by Ellman (Arch. Biochem. Biophys. 82, 70, 1959). Rat brain tissue is homogenized in cold phosphate buffer pH 7.3 (0.25 mM) containing 0.1% of Triton X-100. After centrifugation aliquots of the clear supernatant is used as enzyme source. The enzyme is preincubated with different concentrations of the inhibitor. After different times, substrate (acetylthiocholinjodide 0.5 mM) is added and the remaining activity determined.

[5] = system: deoxyglucose (DOG) utilisation in the brain; assay: Muscarinic and nicotinic effects on brain glucose utilisation (deoxyglucose autoradiography); format: in vivo, rat; settings: 7.5 μmol/kg p.o.
Description: Muscarinic and nicotinic effects on brain glucose utilisation
Changes in the functional activity of the CNS are associated with altered deoxyglucose (DOG) utilisation in the brain which can be visualised simultaneously in several brain regions using the autoradiographic method of Sokoloff et al., J. Neurochem. 28, 897 (1977). The administration of cholinergic drugs either direct (muscarinic agonists) or indirect (accumulation of acetylcholine) induces in this model a characteristic "fingerprint" pattern by modifying the regional glucose metabolism.
Male Wistar rats (150-200 g) are used. Drugs are administered at various doses and by different routes (i.v., p.o., i.p.) to animals. [14C]-2-deoxyglucose (125 μC/kg) is injected 45 min. before the animals are sacrificed. The brains are immediately excised, frozen at -80° C. and subsequently cut in slices with a thickness of 20 μm. The optical densities of the radiographic images are measured according to a modification of Sokoloff et al.

[6] = In vitro skin diffusion test (penetration through the skin); format: in vitro ADME; settings: rat skin
Description: The penetration through the skin of the compounds for administration according to the invention may be observed in standard in vitro or in vivo tests.
One in vitro test is the well known diffusion test which may be effected according to the principles set out in GB 2098865 A and by T. J. Franz in J. Invest. Dermatol. (1975) 64, 194-195. Solutions containing the active agent in unlabelled or radioactively labelled form are applied to one side of isolated pieces of intact human skin or hairless rat skin about 2 cm^2 in area. The other side of the skin is in contact with physiological saline. The amount of active agent in the saline is measured in conventional manner, e.g. by HPLC or spectrophotometric techniques, or by determining the radioactivity.
In this test using rat skin the following penetration rates, for example, have been found: […]

T1 sequence (P37136 32-614): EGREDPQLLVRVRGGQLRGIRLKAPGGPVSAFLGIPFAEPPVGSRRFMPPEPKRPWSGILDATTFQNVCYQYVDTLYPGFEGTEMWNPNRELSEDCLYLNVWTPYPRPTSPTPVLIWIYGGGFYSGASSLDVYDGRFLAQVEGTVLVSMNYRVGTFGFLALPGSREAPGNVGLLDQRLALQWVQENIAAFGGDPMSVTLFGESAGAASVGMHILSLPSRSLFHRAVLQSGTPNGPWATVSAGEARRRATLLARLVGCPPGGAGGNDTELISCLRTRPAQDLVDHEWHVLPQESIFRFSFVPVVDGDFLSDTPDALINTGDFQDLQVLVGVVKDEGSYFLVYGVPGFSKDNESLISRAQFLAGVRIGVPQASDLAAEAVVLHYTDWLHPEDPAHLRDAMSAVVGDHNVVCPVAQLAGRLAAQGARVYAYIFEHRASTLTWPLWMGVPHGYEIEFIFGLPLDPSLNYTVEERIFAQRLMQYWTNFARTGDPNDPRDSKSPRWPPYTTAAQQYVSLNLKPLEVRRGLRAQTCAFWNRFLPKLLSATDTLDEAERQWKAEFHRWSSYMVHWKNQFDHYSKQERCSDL

| SMILES | antagonism of the inhibitory effect by atropine [1] | inhibition at 100 µM ([1]; Rattus norvegicus, 3 h, 100 μM, read-out: inhibition of electrically evoked 3H-ACh release from hippocampal slices) [%] | dopamine metabolism in striatum [2] | influence on ACh levels in rat brain, comparison [3] | activity in the evoked 3H-ACh release model [1] | AChE inhibition in vitro, comparison in words [4] | changes in DOG utilisation in various rat brain regions [5] | penetration rate [6] [%] |
| --- | --- | --- | --- | --- | --- | --- | --- | --- |
| CCN(C)C(=O)Oc1cccc(C(C)N(C)C)c1 (racemic) [Racemate C, (±)-N-ethyl-3-[(1-dimethylamino)ethyl]-N-methyl-phenyl-carbamate] | can be antagonized by atropine | ~25 | increased | significantly weaker than that induced by compound A |  |  |  |  |
| CCN(C)C(=O)Oc1cccc([C@@H](C)N(C)C)c1 [Compound B, reference compound] |  |  | increased | significantly weaker than that induced by racemate C | inactive | significantly less active | significant changes in DOG utilisation |  |
| CCN(C)C(=O)Oc1cccc([C@H](C)N(C)C)c1 [Compound of formula I in free base form, (S)-N-ethyl-3-[(1-dimethylamino)ethyl]-N-methyl-phenyl-carbamate] |  |  |  |  |  |  |  | 28.0±8.2 |
